Where two headings read alike, the source gives them in different places. Ends that are not written are not given here.
Key:
endostatin = assay: Endostatin production by HUVECs (ELISA); assay type: cell-based, human; details: inhibitor of MMPs GM6001 alone; FIG. 16
Procedure: HUVECs were transfected with siRNA using transfecting agent GENJET according to the manufacturer's instructions. After 48 hrs of incubation, supernatants were collected, protein expression tested by western blots and endostatin quantified.
Endostatin levels were quantified by ELISAs on lysates of HUVECs incubated at rising concentrations of P3 or PCT for 48 hrs.
In order to evaluate the role of metalloproteinases (MMPs) in endostatin production, a polyvalent inhibitor of MMPs, GM6001 was used. The concentration of endostatin in supernatants is at 6.2 ng/mg of protein of the lysates/48 hrs. […] GM6001 inhibits endostatin production induced by P3. MMPs might then be implicated in endostatin production induced by P3.
HUVECs were incubated for 48 hrs in an EGM2-MV media with an anti-CD151 antibody (11G5a) or an irrelevant antibody (negative control unable to recognize any protein). Then endostatin levels were measured by ELISA in supernatants.
HUVECs cells were transfected with specific siRNA of CD151 and CD9. Protein expression was analyzed in western blots. In parallel, endostatin levels were measured by ELISA in supernatants. […] Levels of endostatin in supernatant of HUVECs cells transfected with siRNA were measured. […] On the contrary, levels of endostatin increased at 9.4 ng/mg of protein lysates/48 hrs in HUVECs depleted in CD151 (FIG. 18B). CD151 is thus involved in the production of endostatin.

NCI-H460 cells = details: 13 days; for average tumoral volume: Example 6, n=5
Procedure: (§3) Swiss nu/nu female mice aged 5-6 weeks were anesthetized with xylazine (12 mg/kg) and ketamine (80 mg/kg). Tumor cells (NCI-H460 or UMUC-3) were implanted sub-cutanously in the mice flanks. […] Tumor sizes were measured and tumor volume was calculated. Mice were weighted to detect symptoms of pain.
Evaluating the effect of the peptides on tumor growth in vivo was performed. Cancer cells NCI-H460 were injected by sub-cutaneous administration in the Swiss-nu/nu mice flanks (n=20). 10 days following inoculation of tumor cells, mice were randomized in 2 groups of 5 mice. Mice of different groups were treated as follow: mice of group 1 were treated with solvent (200 μL/injection/48 hrs); mice of group 2 were treated with P3 (200 μL of 1 mg/mL of P3 in the solvent/injection/48 hrs). All the treatments were performed by intraperitoneal injection for 13 successive days.
The inoculation of NCI-H460 cells (tumoral volume of 100 to 150 mm^3), mice (n=35) were randomized in 7 groups comprising 5 mice each. […] All the treatments were performed by intraperitoneal injection for 13 successive days.

UMUC-3 cells = assay: Tumor growth test in vivo, UMUC-3 xenograft (no CD9P-1 expression); parameters: species or system mice; details: cisplatin 2.5 mg/kg i.p.; 13 days
Procedure: Tumor sizes were measured and tumor volume was calculated. Mice were weighted to detect symptoms of pain.
The effect of P3 was then tested on the tumor growth in an in vivo model of xenograft of UMUC-3.

Calu-6 cells = assay: Tumor volume in vivo, Calu-6 xenograft; parameters: species or system mice; details: CDDP alone 5 mg/kg i.p. every other day for 16 days
Procedure: All experiments were reviewed by Genopole's institutional animal care and use committee, and performed in accordance with institutional guidelines for animal care. Female BALB/c nu/nu mice (n=24) were used at 5-6 weeks of age. The animals were housed in laminar air-flow cabinets under pathogen-free conditions with a 14 hrs light/10 hrs dark schedule, and fed autoclaved standard chow and water ad libitum. Calu-6 cells (5×10^6 cells in 200 μl of serum-free RPMI) were subcutaneously injected into the right flank of mice. After engraftment (10 days), tumor volume (TV) was measured (Balsari et al, Eur J Cancer. 2004 May; 40(8):1275-81) and animals were randomized and separated into four groups of six animals each, to be treated by i.p. injection (200 μl per injection) every other day for 16 days (eight injections). Control mice (group 1) received the vehicle (0.9% saline). […] Pegylated peptide 4 (P4-PEG) was dissolved in vehicle at 1 mg/ml and injected at a dose of 10 mg/kg (group 3). In group 4, mice received both CDDP and P4-PEG. Tumor volume and body weight were measured every other day over the treatment period (16 days).

CD151 [1] = target: T1, CD151 (Homo sapiens, UniProt P48509); assay: CD151 in lysates of NCI-H460 xenografts (Western blot); assay type: in vivo, mice; details: 10 mg/kg every other day for 13 days
T1 construct: from tissue; host or cells: homogenates of Matrigel implants with NCI-H460 cells, and NCI-H460 xenografts, from Swiss nu/nu mice
T1 sequence (P48509 1-253): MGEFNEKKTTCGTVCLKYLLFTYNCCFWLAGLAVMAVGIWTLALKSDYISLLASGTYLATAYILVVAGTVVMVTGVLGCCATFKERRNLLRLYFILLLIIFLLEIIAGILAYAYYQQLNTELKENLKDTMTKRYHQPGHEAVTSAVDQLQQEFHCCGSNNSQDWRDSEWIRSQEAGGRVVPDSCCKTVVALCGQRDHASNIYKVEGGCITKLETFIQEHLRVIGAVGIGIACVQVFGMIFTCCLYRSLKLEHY
Procedure: (§1) In lysates from xenografts NCI-H460 cells from mice treated for 13 days every other day by P3 or P4 (10 mg/kg), a decrease of CD151 level is observed respectively of 73% and 50% compared to mice treated with the solvent (FIGS. 12A and B). No change in CD9P-1 was observed (FIG. 12A).

[2] = mouse, in vivo
Procedure: as §3
In parallel, to investigate the toxic effect of peptides tested on mice, the mice weights were measured along the treatment.

HUVECs [3] = assay: Cellular proliferation test (MTT) on HUVECs; assay type: cell-based, human; details: 48 h
Procedure: Evaluation of cellular proliferation was performed using 4,5-diMethylThiazol-2-yl)-2,5 diphenylTetrazolium bromide (MTT) test. After 18 hrs of culture, the media was changed by EBM2 supplemented with gentamycine and 5% SVF. Different concentrations of peptides were added under a volume of 10 μL/well. Cells were incubated for 48 hrs at 37° C. MTT was added (50 μL/well) to the cells for 3 hrs.
Cells were grown for 48 h in EGM2-MV and proliferation was quantified by MTT assay.

HUVECs [4] = assay: Capillaries formation by HUVECs on Matrigel; assay type: cell-based, human; details: 6.5 μM, 13 μM and 33 μM, 18 h
Procedure: Evaluating the formation of capillaries on Matrigel® was performed by angiogenesis test in vitro described in Grant et al (1989 Cell 58, 933-943). Matrigel® was dropped down the wells of the 96 well plates and maintained for 30 min at 37° C. for the Matrigel® solidification. HUVECs cells were then seeded and 50 μL, of peptide added.
Plates were then incubated for 18 hrs at 37° C. cells were then washed with calcein solution (50 μL/well at 8 μM) and incubated for 20 min. HUVECs alive metabolize calcein in a green fluorescent component.
Peptides were added to the culture medium (EGM2-MV) at concentrations 6.5 μM, 13 μM and 33 μM after inoculation of cells. Plates were incubated at 37° C. for 18 h. Fluorescence labeling was achieved by addition of calcein. Pictures were shot with a fluorescence microscope equipped with a camera (zoom ×40).

[5] = tested on: Matrigel® implants enriched in NCI-H460 cells; assay: Angiogenesis test in vivo (Matrigel implants, hemoglobin); parameters: species or system mice; details: 10 mg/kg intraperitoneal daily for 12 days; for color of implants: implants collected day 13
Procedure: Implants of Matrigel® represent an in vivo model of angiogenesis. NCI-H460 cells are used to provide growth factors necessary for blood vessels formation within the Matrigel® matrix. The mixture was then injected sub-cutanously in the Swiis nu/nu mice. Daily treatments with the peptides (1 mg/mL) were performed by injections intraperitoneally. Implants were collected after 12 days.
The dosage of hemoglobin in implants was used as an indicator of the vessels of the implant. The implants were weighted and crushed.
An in vivo model of angiogenesis as described in Passaniti et al. (1992 Experimental gerontology 27, 559-566) was utilized to evaluate the effect of P3 and P4. Briefly, cancer cells were incorporated into Matrigel®, cancer cells provide growth and angiogenic factors necessary for blood vessel formation. The mixture was injected immediately under a sub-cutaneous form of the mice flanks. The day following the inoculation, 20 mice (Swiss nu-nu) were randomized in 4 groups containing 5 mice each and the treatments started as follows: mice of group 1 were treated by 200 μL/injection/day of solvent alone for 12 successive days; mice of group 2 were treated by 200 μL/injection of a P1 solution (1 mg/mL) in a solvent/injection/day for 12 successive days; mice of group 3 were treated by 200 μL of a P3 solution (1 mg/mL) in a solvent/injection/day for 12 successive days; mice of group 4 were treated by 200 μL of a P4 solution (1 mg/mL) in a solvent/injection/day for 12 successive days.

CD9P-1 [6] = target: T2, CD9P-1 (Homo sapiens, UniProt Q9P2B2); assay: CD9P-1 in lysates of NCI-H460 xenografts (Western blot); assay type: in vivo, mice; details: 10 mg/kg every other day for 13 days
T2 construct: from tissue; host or cells: homogenates of Matrigel implants with NCI-H460 cells, and NCI-H460 xenografts, from Swiss nu/nu mice
T2 sequence (Q9P2B2 26-879): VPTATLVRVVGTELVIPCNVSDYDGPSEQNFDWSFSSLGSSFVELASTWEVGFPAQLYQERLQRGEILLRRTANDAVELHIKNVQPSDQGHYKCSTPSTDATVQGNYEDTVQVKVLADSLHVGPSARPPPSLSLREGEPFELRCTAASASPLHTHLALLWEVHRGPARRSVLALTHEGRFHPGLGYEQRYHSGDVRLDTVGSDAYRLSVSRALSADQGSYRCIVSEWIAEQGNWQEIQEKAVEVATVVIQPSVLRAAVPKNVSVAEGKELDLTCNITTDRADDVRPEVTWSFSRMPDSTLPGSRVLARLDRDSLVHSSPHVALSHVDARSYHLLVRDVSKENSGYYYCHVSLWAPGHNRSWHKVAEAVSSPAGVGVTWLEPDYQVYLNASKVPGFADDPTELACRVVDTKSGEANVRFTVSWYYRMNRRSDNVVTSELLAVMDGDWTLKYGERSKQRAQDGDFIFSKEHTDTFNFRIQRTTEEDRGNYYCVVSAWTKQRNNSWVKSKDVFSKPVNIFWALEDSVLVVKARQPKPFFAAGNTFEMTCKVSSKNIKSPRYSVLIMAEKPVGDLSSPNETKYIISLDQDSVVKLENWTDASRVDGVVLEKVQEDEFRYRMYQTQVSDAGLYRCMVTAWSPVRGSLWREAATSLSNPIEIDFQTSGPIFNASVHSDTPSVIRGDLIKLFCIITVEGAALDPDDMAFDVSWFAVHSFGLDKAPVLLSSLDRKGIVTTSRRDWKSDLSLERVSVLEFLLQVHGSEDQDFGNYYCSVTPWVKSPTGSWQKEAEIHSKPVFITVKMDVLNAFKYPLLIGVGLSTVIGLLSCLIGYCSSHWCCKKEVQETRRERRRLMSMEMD
Procedure: as §1

CD151 [7] = assay: CD151 in homogenates of Matrigel implants enriched with NCI-H460 (Western blot); assay type: in vivo, mice; details: 10 mg/kg for 12 days
Procedure: (§2) Analysis of the expression of CD151 and CD9P-1 were performed on western blots on homogenates of implants of Matrigel® enriched with NCI-H460. CD151 profile is characterized by 2 bands on western blots; one at 28 kDa corresponds to CD151 and another one at 26 kDa corresponding to a degraded product of CD151.

CD9P-1 [8] = assay: CD9P-1 in homogenates of Matrigel implants enriched with NCI-H460 (Western blot); assay type: in vivo, mice; details: 10 mg/kg for 12 days
Procedure: as §2

endothelial cells = details: results disclosed in WO 2008/138894; cited from earlier work

## CNC(=O)[C@H](Cc1c[nH]c2ccccc12)NC(=O)[C@@H](CC(=O)NO)CC(C)C [GM6001]
endostatin
  concentration of endostatin in supernatants: 4.4 ng/mg of protein of the lysates/48 hrs
  decrease of endostatin compared to the control: about 30%

## N.N.[Cl][Pt][Cl] [cisplatin, Cis-diammine platinum II dichloride]
NCI-H460 cells; cisplatin 2.5 mg/kg i.p.
  average tumoral volume: 1017±119.8 mm^3
NCI-H460 cells; cisplatin alone 5 mg/kg i.p.
  average tumoral volume: 626±118.5 mm^3
UMUC-3 cells
  tumors under treatment: reduced
Calu-6 cells
  tumor volume: significant decrease in tumor volume

## GNYYCSVTPWVKS [P3]
CD151 [1]
  decrease of CD151 level compared to mice treated with the solvent: 73%
NCI-H460 cells; Example 5, P3 200 μL of 1 mg/mL /injection/48 hrs i.p.
  inhibition of the tumor growth in vivo: 64.79±4.37%
[2]
  Weight difference between day 1 and day 13: 10.2 ± 9%
  Weighted average of mice after 13 days of the treatment: 24.6 ± 0.4
[2]; 10 mg/kg
  Weight difference between day 1 and day 13: 6 ± 2%
  Weighted average of mice after 13 days of the treatment: 26.2 ± 2.9
HUVECs [3]; 66 μM, n=3
  inhibition of HUVECs proliferation: 50%±1.2%

## IHSKPVFITVKMDVLNA [P4]
HUVECs [4]
  capillary tubes formation (capillaries length and junctions number): significant decrease of both capillaries length and junctions number
[5]
  inhibition of hemoglobin amount in implants compared to group 1 (solvent): 29.2±8.4%
  color of implants: yellow color with some red points
CD9P-1 [6]
  change in CD9P-1: No change
CD151 [7]
  decrease of the band corresponding to CD151 (28 kDa, normalized to GAPDH, vs solvent): 51%
CD9P-1 [8]
  CD9P-1 level: does not change

## VSWFAVHSFGLDKAPVLLSS (Peptide 1) [P1]
[5]
  color of implants: red color
HUVECs [3]
  effect on HUVECs proliferation: No effect

B1: 168A-T2: fragment of the extracellular domain of protein 168A (CD9P-1) (protein)
chain: MAFDVSWFAVHSFGLDKAPVLLSSLDRKGIVTTSRRDWKSDLSLERVSVLEFLLQVHGSEDQDFGNYYCSVTPWVKSPTGSWQKEAEIHSKPVFITVKMDVLNAFKYP
modifications: peptide 168A-T2
Endothelial cells
  potency relative to the anti-VEGF mAb and/or VEGF receptor (KDR)-based identified peptides: at least 600 fold

Source: patent publication US20170173106A1, “Polypeptide Fragments of 168A-T2 and Compositions Comprising Them for Use in Treating Cancer” (GENE SIGNAL INTERNATIONAL SA, priority 2014, published 2017)
